Legend:
Format in all cases: in vivo
[1] = test system: redroot pigweed (Amaranthus retroflexus, AMARE); assay: Pre-emerge test, greenhouse herbicide activity screening; settings: pre-emerge; for Pre-emerge Herbicidal Activity AMARE: phytotoxicity rating 0-100 at 14 days after application; for phytotoxicity rating AMARE: 14 days after application, rating scale 0-100
Method in brief: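 Compounds in acetone were track-sprayed at 15-1000 g ai/ha (187 l/ha) on sandy loam pots: pre-emerge one day after seeding, post-emerge at 2-3 leaf stage with 0.25% v/v non-ionic surfactant. Phytotoxicity was rated 14 days later on a 0 (no damage) to 100 (complete death) scale.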

[2] = test system: barnyardgrass (Echinochloa crus-galli, ECHCG); assay: as above; settings: pre-emerge; for Pre-emerge Herbicidal Activity ECHCG: phytotoxicity rating 0-100 at 14 days after application; for phytotoxicity rating ECHCG: 14 days after application, rating scale 0-100
Method in brief: (§1)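 Compounds in acetone were track-sprayed at 187 l/ha, 15–1000 g ai/ha, onto sandy loam pots. Pre-emerge seeds were sown one day before spraying, with surface watering afterwards. Post-emerge plants were at the 2–3 leaf stage and sprayed with 0.25% v/v non-ionic surfactant. Injury was rated 0–100 at 14 days.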

[3] = test system: green foxtail (Setaria viridis, SETVI); assay: as above; settings: pre-emerge; for Pre-emerge Herbicidal Activity SETVI: phytotoxicity rating 0-100 at 14 days after application; for phytotoxicity rating SETVI: 14 days after application, rating scale 0-100
Method in brief: as §1

[4] = test system: ivyleaf morningglory (Ipomoea hederacea, IPOHE); assay: as above; settings: pre-emerge; for Pre-emerge Herbicidal Activity IPOHE: phytotoxicity rating 0-100 at 14 days after application; for phytotoxicity rating IPOHE: 14 days after application, rating scale 0-100
Method in brief: as §1

[5] = test system: johnsongrass (Sorghum halepense, SORHA); assay: as above; settings: pre-emerge; for Pre-emerge Herbicidal Activity SORHA: phytotoxicity rating 0-100 at 14 days after application; for phytotoxicity rating SORHA: 14 days after application, rating scale 0-100
Method in brief: as §1

[6] = test system: lambsquarters (Chenopodium album, CHEAL); assay: as above; settings: pre-emerge; for Pre-emerge Herbicidal Activity CHEAL: phytotoxicity rating 0-100 at 14 days after application; for phytotoxicity rating CHEAL: 14 days after application, rating scale 0-100
Method in brief: as §1

[7] = test system: large crabgrass (Digitaria sanguinalis, DIGSA); assay: as above; settings: pre-emerge; for Pre-emerge Herbicidal Activity DIGSA: phytotoxicity rating 0-100 at 14 days after application; for phytotoxicity rating DIGSA: 14 days after application, rating scale 0-100
Method in brief: as §1

[8] = test system: sicklepod (Cassia obtusifolia, CASOB); assay: as above; settings: pre-emerge; for Pre-emerge Herbicidal Activity CASOB: phytotoxicity rating 0-100 at 14 days after application; for phytotoxicity rating CASOB: 14 days after application, rating scale 0-100
Method in brief: as §1

[9] = test system: velvetleaf (Abutilon theophrasti, ABUTH); assay: as above; settings: pre-emerge; for Pre-emerge Herbicidal Activity ABUTH: phytotoxicity rating 0-100 at 14 days after application; for phytotoxicity rating ABUTH: 14 days after application, rating scale 0-100
Method in brief: as §1

[10] = test system: field corn (Zea mays L., var. Dekalb 535, CORN); assay: Pre-emerge test, crop safety; settings: pre-emerge; for Pre-emerge Herbicidal Activity CORN: crop damage, phytotoxicity rating 0-100 at 14 days after application; for phytotoxicity rating CORN: 14 days after application, rating scale 0-100
Method in brief: (§2)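 Fourteen days after spraying, crop and weed injury was graded visually from 0, no effect, to 100, every plant dead. Test substances were dissolved in acetone and applied at 15–1000 g ai/ha with a flat-fan nozzle. Application was either pre-emergence, one day after sowing, or post-emergence at the 2–3 leaf stage.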

[11] = test system: upland rice (Oryza sp., var. Tebonnet, RICE); assay: Pre-emerge test, crop safety; settings: pre-emerge; for Pre-emerge Herbicidal Activity RICE: crop damage, phytotoxicity rating 0-100 at 14 days after application; for phytotoxicity rating RICE: 14 days after application, rating scale 0-100
Method in brief: as §2

COc1c(Cl)cc(F)c(-n2c(=O)n3n(c2=O)CCCC3)c1N [9-4]
60: Pre-emerge Herbicidal Activity AMARE ([1]; rate 63 g ai/ha) | Pre-emerge Herbicidal Activity DIGSA ([7]; rate 250 g ai/ha) | Pre-emerge Herbicidal Activity CASOB ([8]; rate 250 g ai/ha)
80: Pre-emerge Herbicidal Activity CHEAL ([6]; rate 250 g ai/ha)
50: Pre-emerge Herbicidal Activity IPOHE ([4]; rate 250 g ai/ha)
0: Pre-emerge Herbicidal Activity ECHCG ([2]; rate 63 g ai/ha) | Pre-emerge Herbicidal Activity SETVI ([3]; rate 63 g ai/ha) | Pre-emerge Herbicidal Activity SORHA ([5]; rate 63 g ai/ha) | Pre-emerge Herbicidal Activity DIGSA ([7]; rate 63 g ai/ha) | Pre-emerge Herbicidal Activity CORN ([10]; rate 63 g ai/ha) | Pre-emerge Herbicidal Activity CORN ([10]; rate 250 g ai/ha) | Pre-emerge Herbicidal Activity RICE ([11]; rate 63 g ai/ha)
30: Pre-emerge Herbicidal Activity SORHA ([5]; rate 250 g ai/ha) | Pre-emerge Herbicidal Activity CHEAL ([6]; rate 63 g ai/ha) | Pre-emerge Herbicidal Activity CASOB ([8]; rate 63 g ai/ha)
10: Pre-emerge Herbicidal Activity ECHCG ([2]; rate 250 g ai/ha) | Pre-emerge Herbicidal Activity IPOHE ([4]; rate 63 g ai/ha) | Pre-emerge Herbicidal Activity RICE ([11]; rate 250 g ai/ha)
100: Pre-emerge Herbicidal Activity AMARE ([1]; rate 250 g ai/ha) | Pre-emerge Herbicidal Activity ABUTH ([9]; rate 250 g ai/ha)
90: Pre-emerge Herbicidal Activity ABUTH ([9]; rate 63 g ai/ha)
70: Pre-emerge Herbicidal Activity SETVI ([3]; rate 250 g ai/ha)

Cn1c(C(F)(F)F)cc(=O)n(-c2ccc(Cl)cc2C(=O)c2ccccc2)c1=O [14-57]
0: phytotoxicity rating AMARE ([1]; 63 g ai/ha) | phytotoxicity rating AMARE ([1]; 250 g ai/ha) | phytotoxicity rating ECHCG ([2]; 63 g ai/ha) | phytotoxicity rating ECHCG ([2]; 250 g ai/ha) | phytotoxicity rating SETVI ([3]; 63 g ai/ha) | phytotoxicity rating SETVI ([3]; 250 g ai/ha) | phytotoxicity rating IPOHE ([4]; 63 g ai/ha) | phytotoxicity rating IPOHE ([4]; 250 g ai/ha) | phytotoxicity rating SORHA ([5]; 63 g ai/ha) | phytotoxicity rating SORHA ([5]; 250 g ai/ha) | phytotoxicity rating CHEAL ([6]; 63 g ai/ha) | phytotoxicity rating CHEAL ([6]; 250 g ai/ha) | phytotoxicity rating DIGSA ([7]; 63 g ai/ha) | phytotoxicity rating CASOB ([8]; 63 g ai/ha) | phytotoxicity rating CASOB ([8]; 250 g ai/ha) | phytotoxicity rating ABUTH ([9]; 63 g ai/ha) | phytotoxicity rating ABUTH ([9]; 250 g ai/ha) | phytotoxicity rating CORN ([10]; 63 g ai/ha) | phytotoxicity rating CORN ([10]; 250 g ai/ha) | phytotoxicity rating RICE ([11]; 63 g ai/ha) | phytotoxicity rating RICE ([11]; 250 g ai/ha)
20: phytotoxicity rating DIGSA ([7]; 250 g ai/ha)
